Assay [1] has as its system 3D-cultured intestinal organoids (ENR or ENR+CD). Nature of the assay: Lysozyme secretion assay (3D culture), normalized to ATP. Format: cell-based, mouse. As to the method:
Lysozyme assay (3D culture). ISC-enriched organoids cultured in 3D Matrigel with ENRCV media were passaged to 48-well plate in 3D Matrigel with ENRCV. At day zero, media were replaced to ENR or ENRCD with or without indicated compounds, and media were replaced every other day. At day six, cells were washed twice with basal media and treated with carbamylcholine chloride (Sigma, C4382) for 3 hours. Media were collected and lysozyme activity was measured by EnzChek Lysozyme Assay Kit (ThermoFisher, E22013).
Lysozyme secretion assay. ISC-enriched organoids in 3D Matrigel culture were passaged to a 48- or 96-well plate and cultured with ENR or ENR+CD media containing DMSO or each drug for 6 days. DMSO- or drug-containing media were changed every other day. On day 6, cells were washed with basal media twice and treated with basal media with or without 10 μM carbamoylcholine chloride for 3 h in a CO2 incubator at 37° C. A part of the conditioned media was collected and used for lysozyme assay (Thermo, E-22013) following the manufacturer's instruction. The fluorescence was measured using excitation/emission of 485/530 nm. CellTiter-Glo 3D Reagent (Promega, G9681) was added afterward, and the cell culture plate was incubated on an orbital shaker at RT for 30 min to induce cell lysis and to stabilize the luminescent signal. The solution was replaced to a 96-well white microplate, and luminescent signals were measured by a microplate reader (infinite M200, Tecan). The standard curve was prepared by diluting recombinant ATP (Promega, P1132). For both assays, a polynomial cubic curve was fitted to a set of standard data, and each sample value was calculated on the Microsoft Excel.

Assay [2] has as its system intestinal organoids. The experiment in a line: Population RNA-sequencing of treated organoids. Format: cell-based, mouse. As to the method:
Population RNA-sequencing. Population RNA-seq was performed using a derivative of the Smart-Seq2 protocol for single cells. In brief, organoid media was aspirated and RLT+BME (Qiagen) was added to each well, and plate shaken for 30 minutes to fully lyse. Lysate was aliquoted into 4 identical fractions and stored at −80° C. until reverse transcription. RNA lysate was thawed and cleaned with a 2.2×SPRI ratio using Agencourt RNAClean XP beads (Beckman Coulter, A63987). RNA-seq was performed on a bulk population of sorted basal cells using Smart-Seq2 chemistry, starting with a 2.2×SPRI ratio cleanup. After oligo-dT priming, Maxima H Minus Reverse Transcriptase (ThermoFisher EP0753) was used to synthesize cDNA with an elongation step at 52° C. before PCR amplification (15 cycles for tissue, 18 cycles for sorted basal cells) using KAPA HiFi PCR Mastermix (Kapa Biosystems KK2602). Sequencing libraries were prepared using the Nextera XT DNA tagmentation kit (Illumina FC-131-1096) with 250 pg input for each sample. Libraries were pooled post-Nextera and cleaned using Agencourt AMPure SPRI beads with successive 0.7× and 0.8× ratio SPRIs and sequenced with an Illumina 75 Cycle NextSeq500/550v2 kit (Illumina FC-404-2005) with loading density at […], with paired end 35 cycle read structure. Samples were sequenced at an average read depth of 8.44 million reads per sample and a total of 96 samples.
Organoid samples were aligned to the Mm10 genome and transcriptome using STAR and RSEM. […] For module scoring with the in vivo Paneth and enteroendocrine cell-defining genes, Applicants used previously published gene sets and computed per sample module scores through the Seurat package.

The values that follow come from patent US20220323406A1, “METHODS AND COMPOSITIONS FOR DIFFERENTIATING STEM CELLS” (Massachusetts Institute of Technology, priority 2019, published 2022).

Take `O=C(/C=C\n1cnc(-c2cc(C(F)(F)F)cc(C(F)(F)F)c2)n1)NNc1cnccn1` [KPT-330]: the “enrichment, treatment day 4-6 (by LYZ secretion assay)” value in assay [1] (2-day treatment within 6-day ENR+CD differentiation, read at day 6) is “minorly enriched”. The “most effective dose among tested concentrations (LYZ secretion)” value in assay [1] (6 days ENR+CD, basal and Cch-stimulated) is 160 nM. Moreover, in assay [1] (ENR media, 3-D, 6 days), the “Paneth cell-specific activity (lysozyme assay) in conventional ENR culture” value was “enhancing Paneth cell-specific activity”. Besides, in assay [1] (up to 160 nM, 6 days ENR+CD), the “Paneth cell activity (LYZ secretion, basal and Cch-stimulated), dose dependence” value is on record as “enhanced Paneth cell activity in a dose-dependent manner”. Also, the “number of differentially expressed genes among hit compounds” value in assay [2] (ENR and ENR+CD) is listed as “most differentially expressed genes”. Also, the “secretory cell gene set scores (Paneth, goblet, EEC) from bulk transcripts” value in assay [2] (ENR+CV, ENR+CD or ENR) is “increase secretory cells (Paneth, goblet, and EEC)”.
